Laboratory results reported in US6720139B1, “Genes identified as required for proliferation in Escherichia coli” (priority 1999, dated 2004).
Values after ≈ are worked out from the molar mass of the structure shown. Like-named read-outs stand apart in the source and are kept apart here. Positions of bridges follow the written chain, without caps; N, C: chain ends. Non-standard residues stand in square brackets, D forms with d. Residues, ends and D or L forms follow the SMILES beside them. *: point of attachment. Ileψ(thiazoline)Cys = CC[C@H](C)[C@H](N)C1=N[C@H](C(=O)*)CS1; dOrn = NCCC[C@@H](N)C(=O)O

Experiments:
[1] = tested on: bacterial strain engineered for expression of an antisense against rplL and rplJ (50S ribosomal subunit proteins); assay: microbe, parasite or virus in culture; assay type: cell-based, E. coli
Method: A panel of test antibiotics known to act on different pathways is tested side by side with three to four wells being used to evaluate the effect of a test antibiotic on cell growth at each concentration. Equal volumes of test antibiotic and cells are added to the wells of a 384 well microtiter plate and mixed. Cells are prepared as described above using the media selected for assay development supplemented with the antibiotic required to maintain the antisense construct and are diluted 1:100 in identical media immediately prior to addition to the microtiter plate wells. For a control, cells are also added to several wells that contain the solvent used to dissolve the antibiotics but no antibiotic. Cell growth is monitored continuously by incubation at 37° C. in a microtiter plate reader monitoring the OD600 of the wells over an 18-hour period. […] A plot of percent inhibition against log[antibiotic concentration] allows extrapolation of an IC50 value for each antibiotic.
Two fold dilution series of the panel of test antibiotics used above are generated in each of these media. Several antibiotics are tested side by side with three to four wells being used to evaluate the effects of an antibiotic on cell growth at each concentration, in each media. Equal volumes of test antibiotic and cells are added to the wells of a 384 well microtiter plate and mixed. Cells are prepared as described above using the media selected for use in the assay supplemented with the antibiotic required to maintain the antisense construct. […] Immediately prior to addition to the microtiter plate wells, the cultures are adjusted to an appropriate OD600 (typically 0.002) by dilution into warm (37° C.) sterile media supplemented with identical concentrations of the inducer and antibiotic used to maintain the antisense construct. […] Cell growth is monitored continuously by incubation at 37° C. in a microtiter plate reader monitoring the OD600 of the wells over an 18-hour period. […]

[2] = tested on: E. coli cells expressing antisense RNA to rplL, rplJ, rplW or to comparison genes (elaD, visC, yohH, atpB/E); assay: Antibiotic sensitivity of cells expressing antisense RNA (Example 9); assay type: cell-based; conditions: for sensitivity to erythromycin: initial experiments
Description: The effectiveness of the above cell based assay was validated using constructs expressing antisense RNA to E. coli genes rplL, rplJ, and rplW encoding ribosomal proteins L7/L12, L10 and L23 respectively. These proteins are part of the protein synthesis apparatus of the cell and as such are required for proliferation. These constructs were used to test the effect of antisense expression on cell sensitivity to antibiotics known to bind to the ribosome and thereby inhibit protein synthesis. Constructs expressing antisense RNA to several other genes (elaD, visC, yohH, and aptE/B), the products of which are not involved in protein synthesis were used for comparison.
First expression vectors containing antisense constructs to either rplW or to elaD were introduced into separate E. coli cell populations. Vector introduction is a technique well known to those of ordinary skill in the art. The expression vectors of this example contain IPTG inducible promoters that drive the expression of the antisense RNA in the presence of the inducer. However, those skilled in the art will appreciate that other inducible promoters may also be used. Suitable expression vectors are also well known in the art. The E. coli antisense clones encoding ribosomal proteins L7/L12, L10 and L23 were used to test the effect of antisense expression on cell sensitivity to the antibiotics known to bind to these proteins. […]
Cells were pretreated with the selected concentration of IPTG and then used to test the sensitivity of cell populations to tetracycline, erythromycin and other protein synthesis inhibitors. […] Cells were grown to log phase and then diluted into media alone or media containing IPTG at concentrations which give 20% and 50% growth inhibition as determined by IPTG dose response curves. […] The 96 well plates were incubated at 37° C. and the OD600 was read by a plate reader every 5 minutes for up to 15 hours. For each IPTG concentration and the no IPTG control, tetracycline dose response curves were determined when the control (absence of tetracycline) reached 0.1 OD600.

E. coli = assay: Inhibition of bacterial proliferation after IPTG induction of antisense clones (Example 1); assay type: cell-based, Escherichia coli; conditions: 1 mM IPTG, liquid or solid medium
Method: To study the effects of transcriptional induction in liquid medium, growth curves were carried out by back diluting cultures 1:200 into fresh media with or without 1 mM IPTG and measuring the OD450 every 30 minutes (min). To study the effects of transcriptional induction on solid medium, 10^2, 10^3, 10^4, 10^5, 10^6, 10^7 and 10^8 fold dilutions of overnight cultures were prepared. Aliquots of from 0.5 to 3 μl of these dilutions were spotted on selective agar plates with or without 1 mM IPTG. After overnight incubation, the plates were compared to assess the sensitivity of the clones to IPTG.
Of the numerous clones tested, some clones were identified as, a containing sequence that inhibited E. coli growth after IPTG induction. Accordingly, the gene to which the inserted nucleic acid sequence corresponds, or a gene within the operon containing the inserted nucleic acid, may be required for proliferation in E. coli.

CC[C@H](C)[C@H](N)C1=N[C@H](C(=O)N[C@@H](CC(C)C)C(=O)N[C@H](CCC(=O)O)C(=O)N[C@H](C(=O)N[C@H]2CCCCNC(=O)[C@H](CC(N)=O)NC(=O)[C@@H](CC(=O)O)NC(=O)[C@H](Cc3cnc[nH]3)NC(=O)[C@@H](Cc3ccccc3)NC(=O)[C@H]([C@@H](C)CC)NC(=O)[C@@H](CCCN)NC2=O)[C@@H](C)CC)CS1 [Bacitracin] ({Ileψ(thiazoline)Cys}-L[dE]IK[dOrn]I[dF]H[dD]N; lactam 4-C)
IC50 ([1]; read-out: IC50 (+IPTG)): 4680 µg/mL (≈ 3290 µM)
IC50 ([1]; read-out: IC50 (−IPTG)): 4080 µg/mL (≈ 2870 µM)

CCn1cc(C(=O)O)c(=O)c2ccc(C)nc21 [Nalidixic acid]
sensitivity to antibiotics which do not inhibit protein synthesis ([2]; clone expressing antisense to rplL and rplJ): does not show increased sensitivity

CN(C)c1ccc(O)c2c1C[C@H]1C[C@H]3[C@H](N(C)C)C(O)=C(C(N)=O)C(=O)[C@@]3(O)C(O)=C1C2=O [Minocycline]
IC50 ([1]; read-out: IC50 (+IPTG)): 0.0034 µg/mL (≈ 0.00743 µM)

CC[C@H]1OC(=O)[C@H](C)[C@@H](O[C@H]2C[C@@](C)(OC)[C@@H](O)[C@H](C)O2)[C@H](C)[C@@H](O[C@@H]2O[C@H](C)C[C@H](N(C)C)[C@H]2O)[C@](C)(O)C[C@@H](C)C(=O)[C@H](C)[C@@H](O)[C@]1(C)O [Erythromycin]
sensitivity to erythromycin ([2]; clones expressing antisense to non-protein synthesis genes elaD, atpB/E and visC): do not
sensitivity to erythromycin ([2]; clones expressing antisense to protein synthesis genes (L7/L12 & L10, L7/L12 alone, L22, L18, rRNA, Elongation Factor G)): increased sensitivity

B1: EcXA046: identified clone corresponding to an intergenic sequence, fimE, fimA (nucleic acid)
DNA: TTTGTTGGCTTAATATTCTATTGTTATCTTTATTTATAGATGTTTATATTGCATGAGGTGGTTTTTGGAGAGAAGAATGAGGAAGATGCGTCGAGCCACAGAAACGTTAGCTTTACATATAGCGGAGGTGATGTGAATTTAATTTACAATAGAAATAATTTACATATCAAACAGTTAGATGCTTTTTGTCG
modifications: E. Coli
E. coli growth after IPTG induction of antisense expression (E. coli): reduction in cell growth

B2: EcXA006: identified antisense clone, gene pta (nucleic acid)
DNA: GCGCATACCCTGCAGCATCGGCCCGATGGAGATCAGGTCGGCAGAACGCTGTACCGCTTTGTAGGTGGTGTTACCGGTGNTCAGATCCGGGAAGATGAACACGGTAGCGCGACCTGCAACCGGAGAGTTCGGCGCTTTGGATTNCGCAACGTCAGCCATTACCGCAGCGTCGTACTGCAGCGGACCGGCGATCATCAGGTCA
modifications: E. Coli; misc_feature (1)...(202): n = A,T,C or G
notes: identified antisense clone, gene pta
E. coli growth after IPTG induction of antisense expression (E. coli): reduction in cell growth

B3: EcXA053: identified antisense clone, gene gor (nucleic acid, listed as Escherichia coli)
DNA 1: TGGAGAAAACGGGTGATTGATAAAGCAATCATCGTTCTAGGGGCGTTAATTGCGCTGCTGGAACTGATCCCGCTTTCTGCTTCAAGCTTCTGAACTGGATACGGAAACGTAATNAGGGCTAAAGAAGACACTACTCTTAGCCCTTTAACATTTAACGCATTGTCACGAACTCTTCTGCCGCCGTTGGGTGAATGGCGACGGGTATTGGTCGAAATCTTTTTTGGGTGGCCCCATCTTTAACGCCCACCCGCGAAACCCTGCAACATTTCGTC
DNA 2: TGGAGAAAACGGGTGATTGATAAAGCAATCATCGTTCTAGGGGCGTTAATTGCGCTGCTGGAACTGATCCGCTTTCTGCTTCAGCTTCTGAACTGATAGCGGAAACGTAATTAAGGGCTAAGAGCACACTACTCTTAGCCCTTTAACATTTAACGCATTGTCACGAACTCTTCTGCCGCCGTTGGGTGAATGGCGACGGTATTGTCGAAGTCTTTTTTGGTTGCCCCCATCTTCAGCGCCACCGCGAAGCCCTGCAACATTTCGTC
modifications: E. Coli; misc_feature (1)...(272): n = A,T,C or G
notes: identified antisense clone, gene gor
E. coli growth after IPTG induction of antisense expression (E. coli): reduction in cell growth

B4: EcXA044: identified antisense clone, gene purB (nucleic acid)
DNA: TTAATTATTAAAATAGTGTAACGCGATTATGTGGTTATGGGGGTAAACATTAAATAAACCAGCGGGGAGGGGAGGTAAAGTGAAAAAATAAAAAGCGGATAATCTTAATAAGCAGGCCGGACAGCATCGCCATCCGGCACTGATACGAGGTTTATTTCAGCTCATCAACCATCG
modifications: E. Coli
notes: identified antisense clone, gene purB
E. coli growth after IPTG induction of antisense expression (E. coli): reduction in cell growth
